Tests used:
EZH2 = EZH2 (Homo sapiens, UniProt Q15910); assay: EZH2 assay (rPRC2, 3H SAM methyl transfer to biotinylated oligonucleosomes); format: biochemical; conditions: rPRC2, 2 nM EZH2, biotinylated oligonucleosomes, 0.2 μM 3H SAM; top concentration 80 μM
Procedure: (§1) Assays were carried out by mixing rPRC2 together with biotinylated oligonucleosome substrates in the presence of the radio-labeled enzyme co-factor, S-adenosyl-L-methionine (^3H SAM) (Perkin Elmer) and monitoring the enzymatically mediated transfer of tritiated methyl groups from ^3H SAM to histone lysine residues. The amount of resulting tritiated methylhistone product was measured by first capturing the biotinylated oligonucleosomes in streptavidin (SAV) coated FlashPlates (Perkin Elmer), followed by a wash step to remove un-reacted ^3H SAM, and then counting on a TopCount NXT 384 well plate scintillation counter (Perkin Elmer). The final assay conditions for EZH2 were as follows: 50 mM Tris Buffer pH 8.5, 1 mM DTT, 69 μM Brij-35 detergent, 5.0 mM MgCl2, 0.1 mg/mL BSA, 0.2 μM ^3H SAM, 0.2 μM biotinylated oligonucleosomes, 3.6 μM H3K27me3 peptide and 2 nM EZH2.
(§2) Ten point dose response curves were generated by dispensing varying amounts of the 10 mM compound solution in 10 wells of the 384 well plate (Echo; Labcyte), pure DMSO was then used to backfill the wells to insure all wells have the same amount of DMSO. A 12.5 μL volume of the HMT enzyme, H3K27me3 peptide and oligonucleosome substrate in assay buffer was added to each well of the assay plate using a Multidrop Combi (ThermoFisher). Compounds were pre-incubated with the enzyme for 20 min, followed by initiation of the methyltransferase reaction by addition of 12.5 μL of 3H SAM in assay buffer (final volume=25 μL). The final concentrations of compounds ranged from a top default concentration of 80 μM down to 0.16 μM in ten 2-fold dilution steps. Reactions were carried out for 60 minutes and quenched with 20 μL per well of 1.96 mM SAH, 50 mM Tris PH 8.5, 200 mM EDTA. Stopped reactions were transferred to SAV coated Flashplates (Perkin Elmer), incubated for 120 min, washed with a plate washer, and then read on the TopCount NXT (1.0 min/well) to measure the amount of methylhistone product formed during the reaction.

Y641N EZH2 = Y641N EZH2 (Homo sapiens, UniProt Q15910, Y641N); assay: Y641N EZH2 assay (as the EZH2 assay, with H3K27Me2 oligonucleosomes as substrate); format: biochemical; conditions: Y641N EZH2 mutant, reconstituted H3K27Me2 oligonucleosomes as substrate; top concentration 80 μM
Procedure: as §1, §2
Assay for Y641N EZH2 was performed as above using reconstituted H3K27Me2 oligonucleosomes as substrate.

Chain of EZH2 (Q15910 whole entry): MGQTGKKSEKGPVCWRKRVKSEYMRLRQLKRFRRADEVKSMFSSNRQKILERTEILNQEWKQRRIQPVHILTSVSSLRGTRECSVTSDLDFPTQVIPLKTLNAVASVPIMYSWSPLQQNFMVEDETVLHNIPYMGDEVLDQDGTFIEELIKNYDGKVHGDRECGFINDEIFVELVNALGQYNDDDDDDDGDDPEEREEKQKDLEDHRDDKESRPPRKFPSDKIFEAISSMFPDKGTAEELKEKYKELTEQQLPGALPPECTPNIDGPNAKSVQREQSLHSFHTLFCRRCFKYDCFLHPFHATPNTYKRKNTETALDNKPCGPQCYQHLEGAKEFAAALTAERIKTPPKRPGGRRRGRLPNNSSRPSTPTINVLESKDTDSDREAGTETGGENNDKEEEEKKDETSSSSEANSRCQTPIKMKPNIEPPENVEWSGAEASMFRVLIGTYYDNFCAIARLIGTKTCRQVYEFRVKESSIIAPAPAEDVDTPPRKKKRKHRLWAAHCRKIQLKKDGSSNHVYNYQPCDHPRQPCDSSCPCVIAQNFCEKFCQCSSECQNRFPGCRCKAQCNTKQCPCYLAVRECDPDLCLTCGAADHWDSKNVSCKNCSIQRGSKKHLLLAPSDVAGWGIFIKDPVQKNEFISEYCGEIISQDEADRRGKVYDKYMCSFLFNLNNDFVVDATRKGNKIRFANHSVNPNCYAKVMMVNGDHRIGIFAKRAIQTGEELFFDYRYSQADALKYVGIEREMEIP
Chain of EZH2 (O75530 whole entry partner): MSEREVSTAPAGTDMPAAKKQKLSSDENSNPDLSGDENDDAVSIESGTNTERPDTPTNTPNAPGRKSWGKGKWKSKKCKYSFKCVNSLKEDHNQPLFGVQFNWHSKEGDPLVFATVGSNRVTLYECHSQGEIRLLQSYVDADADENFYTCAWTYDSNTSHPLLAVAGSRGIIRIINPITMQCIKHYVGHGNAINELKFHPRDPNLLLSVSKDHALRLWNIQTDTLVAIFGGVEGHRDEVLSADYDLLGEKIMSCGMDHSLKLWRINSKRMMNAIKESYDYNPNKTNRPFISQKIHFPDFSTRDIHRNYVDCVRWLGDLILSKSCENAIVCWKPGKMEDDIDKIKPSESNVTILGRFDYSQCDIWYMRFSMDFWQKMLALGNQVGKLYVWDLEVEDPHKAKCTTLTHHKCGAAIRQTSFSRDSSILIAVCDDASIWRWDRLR
Chain of EZH2 (Q15022 whole entry partner): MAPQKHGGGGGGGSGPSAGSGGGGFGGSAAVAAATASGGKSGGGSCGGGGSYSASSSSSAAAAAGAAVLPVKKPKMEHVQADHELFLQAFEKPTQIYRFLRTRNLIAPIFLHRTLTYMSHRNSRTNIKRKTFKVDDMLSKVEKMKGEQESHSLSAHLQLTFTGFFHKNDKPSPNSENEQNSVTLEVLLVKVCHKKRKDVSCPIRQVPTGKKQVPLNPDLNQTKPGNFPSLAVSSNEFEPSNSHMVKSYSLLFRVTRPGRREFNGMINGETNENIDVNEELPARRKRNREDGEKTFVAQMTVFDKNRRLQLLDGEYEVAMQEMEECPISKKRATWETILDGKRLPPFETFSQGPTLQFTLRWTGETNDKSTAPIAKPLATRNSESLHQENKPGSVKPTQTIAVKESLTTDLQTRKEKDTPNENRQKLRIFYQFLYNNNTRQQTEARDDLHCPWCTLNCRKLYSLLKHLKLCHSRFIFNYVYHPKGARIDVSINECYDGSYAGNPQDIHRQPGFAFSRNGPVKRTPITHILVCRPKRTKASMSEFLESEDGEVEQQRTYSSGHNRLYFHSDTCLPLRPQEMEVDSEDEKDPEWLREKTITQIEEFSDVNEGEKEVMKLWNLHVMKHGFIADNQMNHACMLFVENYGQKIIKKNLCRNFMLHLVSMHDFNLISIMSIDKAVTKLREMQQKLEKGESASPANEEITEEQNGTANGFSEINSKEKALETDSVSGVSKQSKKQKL
Chain of Y641N EZH2 (Q15910 whole entry Y641N): as the sequence (Q15910 whole entry) above, with Y641N counted along it
Chain of Y641N EZH2 (O75530 whole entry partner): as the sequence (O75530 whole entry partner) above
Chain of Y641N EZH2 (Q15022 whole entry partner): as the sequence (Q15022 whole entry partner) above

IC50 (EZH2) | IC50 (Y641N EZH2) | Compound
> 10000 nM | > 80 µM | Cc1cc(C)c(CNC(=O)c2ccc(C(C)(C)O)cc2)c(=O)[nH]1 [Compound I-20, N-((2-hydroxy-4,6-dimethylpyridin-3-yl)methyl)-4-(2-hydroxypropan-2-yl)benzamide]
< 1000 nM | 1 to 10 µM | CCOC(C)c1ccc(C(=O)NCc2c(C)cc(C)[nH]c2=O)cc1 (stereo not drawn) [Compound I-7, 4-(1-ethoxyethyl)-N-((2-hydroxy-4,6-dimethylpyridin-3-yl)methyl)benzamide]
< 1000 nM | 1 to 10 µM | Cc1cc(C)c(CNC(=O)c2ccc(C(C)OC(C)C)cc2)c(=O)[nH]1 (stereo not drawn) [Compound I-5, N-((2-hydroxy-4,6-dimethylpyridin-3-yl)methyl)-4-(1-isopropoxyethyl)benzamide]
1000 to 10000 nM | > 10 µM | COC(C)(C)c1ccc(C(=O)NCc2c(C)cc(C)[nH]c2=O)cc1 [Compound I-3, N-((2-hydroxy-4,6-dimethylpyridin-3-yl)methyl)-4-(2-methoxypropan-2-yl)benzamide]
< 1000 nM | 1 to 10 µM | COC(C)c1ccc(C(=O)NCc2c(C)cc(C)[nH]c2=O)cc1 (stereo not drawn) [Compound I-4, N-((2-hydroxy-4,6-dimethylpyridin-3-yl)methyl)-4-(1-methoxyethyl)benzamide]
> 10000 nM | > 10 µM | Cc1cc(C)c(CNC(=O)c2ccc(COC(C)C)cc2)c(=O)[nH]1 [Compound I-6]
1000 to 10000 nM | > 80 µM | Cc1cc(C)c(CNC(=O)c2ccc3c(c2)OCC3C)c(=O)[nH]1 (stereo not drawn) [Compound I-12]
> 80000 nM | > 80 µM | CC(=O)NC(C)c1ccc(C(=O)NCc2c(C)cc(C)[nH]c2=O)cc1 (stereo not drawn) [Compound I-29, 4-(1-acetamidoethyl)-N-((2-hydroxy-4,6-dimethylpyridin-3-yl)methyl)benzamide]
< 1000 nM | 1 to 10 µM | CCCC(C)c1ccc(C(=O)NCc2c(C)cc(C)[nH]c2=O)cc1 (stereo not drawn) [Compound I-10, N-((2-hydroxy-4,6-dimethylpyridin-3-yl)methyl)-4-(pentan-2-yl)benzamide]
1000 to 10000 nM | 1 to 10 µM | Cc1cc(C)c(CNC(=O)c2ccc(C(C)C)cc2C)c(=O)[nH]1 [Compound I-1, N-((2-hydroxy-4,6-dimethylpyridin-3-yl)methyl)-4-isopropyl-2-methylbenzamide]
< 1000 nM | 1 to 10 µM | Cc1cc(C)c(CNC(=O)c2ccc(C(C)C(C)C)cc2)c(=O)[nH]1 (stereo not drawn) [Compound I-9, N-((2-hydroxy-4,6-dimethylpyridin-3-yl)methyl)-4-(3-methylbutan-2-yl)benzamide]
1000 to 10000 nM | > 80 µM | Cc1cc(C)c(CNC(=O)c2ccc(C(C)C)c(Oc3ccccc3)c2)c(=O)[nH]1 [Compound I-11, N-((2-hydroxy-4,6-dimethylpyridin-3-yl)methyl)-4-isopropyl-3-phenoxy benzamide]
1000 to 10000 nM | > 80 µM | Cc1cc(C)c(CNC(=O)c2ccn(C(C)C)c(=O)c2)c(=O)[nH]1 [Compound I-14, N-((2-hydroxy-4,6-dimethylpyridin-3-yl)methyl)-1-isopropyl-2-oxo-1,2-dihydropyridine-4-carboxamide]
< 1000 nM | 1 to 10 µM | Cc1cc(C)c(CNC(=O)c2ccc(C(C)C)cc2Cl)c(=O)[nH]1 [Compound I-2, 2-chloro-N-((2-hydroxy-4,6-dimethylpyridin-3-yl)methyl)-4-isopropyl benzamide]

Compound | IC50 (EZH2) | IC50 (Y641N EZH2)
Cc1cc(C)c(CNC(=O)c2ccc(C(C)OCC(C)C)cc2)c(=O)[nH]1 (stereo not drawn) [Compound I-8, N-((2-hydroxy-4,6-dimethylpyridin-3-yl)methyl)-4-(1-isobutoxyethyl)benzamide] | < 1000 nM | 1 to 10 µM
